biological target: T1, human β3 adrenergic receptor (Homo sapiens, UniProt P13945); experiment: Beta-3 agonist in vitro functional assay (cAMP production, LANCE, transfected CHO cells); assay type: cell-based; settings: Table 1, CHO cells with cloned β3 receptor, ligands titrated 10^-10 M to 10^-5 M, read-out: Human β3 agonist functional activity
T1 construct: expressed in transfected cells; host or cells: CHO (Chinese hamster ovary) cells, stably transfected
Procedure: Functional Assay: For compounds in examples 1-50, cAMP production in response to ligand is measured according to Barton, et al. (1991, Agonist-induced desensitization of D2 dopamine receptors in human Y-79 retinoblastoma cells. Mol. Pharmacol. […]:650-658) modified as follows. The cAMP production is measured using a homogenous time-resolved fluorescence resonance energy transfer immunoassay (LANCE™, Perkin Elmer) according to the manufacture's instructions. Chinese hamster ovary (CHO) cells, stably transfected with the cloned β-adrenergic receptor (β1, β2 or β3) are harvested after 3 days of subculturing. Harvesting of cells is done with Enzyme-free Dissociation Media (Specialty Media). Cells are then counted and resuspended in assay buffer (Hank's Balanced salt solution supplemented with 5 mM HEPES, […]) containing a phosphodiesterase inhibitor (IBMX, 0.6 mM). The reaction is initiated by mixing 6,000 cells in 6 μL with 6 μL Alexa Fluor labeled cAMP antibody (LANCE™ kit) which is then added to an assay well containing 12 μL of compound (diluted in assay buffer to 2× final concentration). The reaction proceeds for 30 minutes at RT and is terminated by the addition of 24 ul detection buffer (LANCE™ kit). The assay plate is then incubated for 1 h at RT and time-resolved fluorescence measured on a Perkin Elmer Envision reader or equivalent. The unknown cAMP level is determined by comparing fluorescence levels to a cAMP standard curve.
The non-selective, full agonist β-adrenergic ligand isoproterenol is used at all three receptors to determine maximal stimulation. The human β3 adrenergic receptor (AR) selective ligand (S)-N-[4-[2-[[2-hydroxy-3-(4-hydroxyphenoxy)propyl]amino]ethyl]-phenyl]-4-iodobenzenesulfonamide is used as a control in all assays. […] The EC50 is defined as the concentration of compound that gives 50% activation of its own maximum. Data are analyzed using Microsoft Excel and Graphpad Prism or an internally developed data analysis software package.
The EC50 is defined as the concentration of compound that gives 50% activation of its own maximum. Functional antagonist assays are performed similar to described above; however, unknown ligands are titrated at β-adrenergic receptor subtypes 1 and 2 at a final concentration in the assay of 10^-12 M to 10^-5 M in the presence of 10^-9 M full agonist β-adrenergic ligand isoproterenol. The EC50 is defined as the concentration of compound that gives 50% inhibition of the full agonist response. Data are analyzed using Microsoft Excel and Graphpad Prism or an internally developed data analysis software package.

T1 sequence (P13945 whole entry): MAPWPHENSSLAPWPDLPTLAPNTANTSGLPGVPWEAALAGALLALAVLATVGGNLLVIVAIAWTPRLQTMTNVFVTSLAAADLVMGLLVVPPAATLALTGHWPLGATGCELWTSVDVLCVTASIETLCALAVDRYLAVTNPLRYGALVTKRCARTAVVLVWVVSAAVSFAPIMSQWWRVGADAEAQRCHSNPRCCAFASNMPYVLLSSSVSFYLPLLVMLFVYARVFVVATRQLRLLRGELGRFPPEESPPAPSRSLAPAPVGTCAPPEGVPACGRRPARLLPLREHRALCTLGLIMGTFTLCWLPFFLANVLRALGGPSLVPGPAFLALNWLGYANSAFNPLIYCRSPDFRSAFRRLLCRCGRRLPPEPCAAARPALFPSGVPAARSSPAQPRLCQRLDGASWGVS

`Cc1nc(CNC(=O)c2ccc(C[C@@H]3CC[C@H]([C@H](O)c4ccccc4)N3)cc2)cs1` [Example 27] and `Nc1nc(CNC(=O)c2ccc(C[C@@H]3CC[C@H]([C@H](O)c4ccccc4)N3)cc2)cs1` [Example 25] fall in the same range of EC50: 10 to 99.9 nM for the first, 10 to 99.9 nM for the second.

`O=C(NCc1cc2ccccc2cn1)c1ccc(C[C@@H]2CC[C@H]([C@H](O)c3ccccc3)N2)cc1` [Example 45] and `O=C(NCc1cc(-c2ccccc2)n[nH]1)c1ccc(C[C@@H]2CC[C@H]([C@H](O)c3ccccc3)N2)cc1` [Example 32] fall in the same range of EC50: 10 to 99.9 nM for the first, 10 to 99.9 nM for the second.

Compared with `Cc1cc(C)nc(CNC(=O)c2ccc(C[C@@H]3CC[C@H]([C@H](O)c4ccccc4)N3)cc2)n1` [Example 3], `O=C(NCc1cnccn1)c1ccc(C[C@@H]2CC[C@H]([C@H](O)c3ccccc3)N2)cc1` [Example 10] is higher in EC50: 10 to 99.9 nM for the first, 100 to 999 nM for the second. The first is the more potent here.

For `Cn1c(CNC(=O)c2ccc(C[C@@H]3CC[C@H]([C@H](O)c4cccnc4)N3)cc2)nc2ccccc21` [Example 36], the EC50 was 10 to 99.9 nM.

same assay, conditions: Table 2, CHO cells with cloned β3 receptor, ligands titrated 10^-10 M to 10^-5 M, read-out: Human β3 agonist functional activity

Compound `Cc1cc(C)nc(CNC(=O)c2ccc(C[C@@H]3CC[C@H]([C@H](O)c4ccc(F)cc4)N3)cc2)n1` [Example 50] has an EC50 of 10 to 99.9 nM.

same assay, conditions: Table 3, CHO cells with cloned β3 receptor, ligands titrated 10^-12 M to 10^-5 M, read-out: Human β3 agonist functional activity

`CC(C)c1nc(CCN(C)C(=O)c2ccc(C[C@@H]3CC[C@H]([C@H](O)c4ccccc4)N3)cc2)no1` [Example 89] and `CCN(Cc1ccnc(C(C)C)n1)C(=O)c1ccc(C[C@@H]2CC[C@H]([C@H](O)c3ccccc3)N2)cc1` [Example 104] fall in the same range of EC50: 10 to 99.9 nM for the first, 10 to 99.9 nM for the second.

`CN(Cc1ccon1)C(=O)c1ccc(C[C@@H]2CC[C@H]([C@H](O)c3ccccc3)N2)cc1` [Example 86] and `CN(Cc1cccc(Br)n1)C(=O)c1ccc(C[C@@H]2CC[C@H]([C@H](O)c3ccccc3)N2)cc1` [Example 77] fall in the same range of EC50: 10 to 99.9 nM for the first, 10 to 99.9 nM for the second.

First: CN(Cc1nccs1)C(=O)c1ccc(C[C@@H]2CC[C@H]([C@H](O)c3ccccc3)N2)cc1 [Example 118]
Second: CN(Cc1cnccn1)C(=O)c1ccc(C[C@@H]2CC[C@H]([C@H](O)c3ccccc3)N2)cc1 [Example 74]
The EC50 of the first is higher: 100 to 999 nM for the first, 10 to 99.9 nM for the second.

`CN(Cc1ccncc1)C(=O)c1ccc(C[C@@H]2CC[C@H]([C@H](O)c3ccccc3)N2)cc1` [Example 71] and `CN(Cc1cc(-c2ccncc2)on1)C(=O)c1ccc(C[C@@H]2CC[C@H]([C@H](O)c3ccccc3)N2)cc1` [Example 107] fall in the same range of EC50: 100 to 999 nM for the first, 100 to 999 nM for the second.

Compared with `CN(Cc1csc(N)n1)C(=O)c1ccc(C[C@@H]2CC[C@H]([C@H](O)c3ccccc3)N2)cc1` [Example 132], `CN(Cc1ncccc1F)C(=O)c1ccc(C[C@@H]2CC[C@H]([C@H](O)c3ccccc3)N2)cc1` [Example 106] is lower in EC50: 100 to 999 nM for the first, 10 to 99.9 nM for the second.

First: CN(C)C(=O)c1ccc(C[C@@H]2CC[C@H]([C@H](O)c3ccccc3)N2)cc1 [Example 69]
Second: Cc1ccc(OCCN(C)C(=O)c2ccc(C[C@@H]3CC[C@H]([C@H](O)c4ccccc4)N3)cc2)cc1 [Example 120]
The EC50 of the first is lower: 10 to 99.9 nM for the first, 1000 to 3000 nM for the second. The first is the more potent here.

`COCCCN(Cc1cccnn1)C(=O)c1ccc(C[C@@H]2CC[C@H]([C@H](O)c3ccccc3)N2)cc1` [Example 131] and `CN(Cc1cc2ccccc2cn1)C(=O)c1ccc(C[C@@H]2CC[C@H]([C@H](O)c3ccccc3)N2)cc1` [Example 52] fall in the same range of EC50: 100 to 999 nM for the first, 100 to 999 nM for the second.

`CN(Cc1ccc2nccnc2c1)C(=O)c1ccc(C[C@@H]2CC[C@H]([C@H](O)c3ccccc3)N2)cc1` [Example 92] gave an EC50 of 10 to 99.9 nM.

same assay, conditions: given as a range, CHO cells with cloned β3 receptor, read-out: human Beta-3 agonist functional activity

First: CN(Cc1cccc(N)n1)C(=O)c1ccc(C[C@@H]2CC[C@H]([C@H](O)c3ccccc3)N2)cc1 [Example 136, N-[(6-aminopyridin-2-yl)methyl]-4-({(2S,5R)-5-[(R)-hydroxy(phenyl)methyl]pyrrolidin-2-yl}methyl)-N-methylbenzamide]
Second: CN(C)C(=O)c1ccc(C[C@@H]2CC[C@H](C(O)c3ccc(N)nc3)N2)cc1 (stereo partly drawn) [Example 133, 4-({(2S,5R)-5-[(6-aminopyridin-3-yl)(hydroxy)methyl]pyrrolidin-2-yl}methyl)-N,N-dimethylbenzamide]
The EC50 of the first is lower: under 1 nM for the first, 10 to 99.9 nM for the second.

test system: rats; experiment: not given; settings: intravenous administration, cystometric studies; cited from earlier work

In the case of `C[C@H](Cc1ccc2c(c1)OC(C(=O)[O-])(C(=O)[O-])O2)NC[C@H](O)c1cccc(Cl)c1.[Na+].[Na+]` [CL316243], the bladder capacity is listed as “increases bladder capacity”.

In the case of `C[C@H](Cc1ccc2c(c1)OC(C(=O)[O-])(C(=O)[O-])O2)NC[C@H](O)c1cccc(Cl)c1.[Na+].[Na+]` [CL316243], the micturition interval is given as “prolongation of micturition interval”.

In the case of `C[C@H](Cc1ccc2c(c1)OC(C(=O)[O-])(C(=O)[O-])O2)NC[C@H](O)c1cccc(Cl)c1.[Na+].[Na+]` [CL316243], the residual urine volume is listed as “without increasing residual urine volume”.

same assay, conditions: intravenous administration; cited from earlier work

In the case of `C[C@H](Cc1ccc2c(c1)OC(C(=O)[O-])(C(=O)[O-])O2)NC[C@H](O)c1cccc(Cl)c1.[Na+].[Na+]` [CL316243], the bladder pressure is given as “reduces bladder pressure”.
